Assay results published in patent US8252764B2, “Compositions and methods of use of targeting peptides against placenta and adipose tissues” (priority 2000, dated 2012).
Peptide text beside a SMILES is read from it.

Legend:
HUVECs [1] = experiment: HUVEC cell growth assay (crystal violet); format: cell-based, human; conditions: 1 mM, VEGF-A (10 ng/ml)
Description: FIG. 34. […] (SEQ ID NO:56) inhibits HUVEC proliferation. Cells were stimulated with VEGF-A (10 ng/ml), and growth was evaluated at the indicated times by a colorimetric assay based on crystal violet staining. Error bars are the standard error of the means of triplicate wells. Each experiment was repeated at least twice with similar results.
HUVECs were seeded in 48-well plates (10^4 cells/well) and allowed to attach for 24 h in complete M199 medium. The cells were then starved in M199 medium containing 2% FCS for 24 h. […] (SEQ ID NO:56) or control […] (SEQ ID NO:57) peptide (1 mM) was added to the wells in medium containing 2% FCS and 10 ng/ml VEGF-A (R&D System, Abingdom, UK). After incubation for the indicated times, cells were fixed in 2.5% glutaraldehyde, stained with 0.1% crystal violet in 20% methanol, and solubilized in 10% acetic acid. All treatments were done in triplicate. Cell growth was evaluated by measuring the O.D. at 590 nm in a microplate reader (Bio-Rad Laboratories, Hercules, Calif.). A calibration curve was established and a linear correlation between O.D. and cell counts was observed between 10^3 and 10^5 cells.

Aminopeptidase A (APA) = target: T1, Aminopeptidase A (APA) (Homo sapiens, UniProt Q07075); experiment: APA enzyme assay; format: biochemical
T1 construct: transfected with an expression vector encoding full-length APA cDNA; expressed in transfected cells; host or cells: SK-RC-49 renal carcinoma cells, stably transfected (SK-RC-49/APA)

SK-RC-49/APA cells = experiment: Phage binding specificity assay on SK-RC-49/APA cells; format: cell-based; conditions: soluble peptide
Description: The cell binding assay was performed with an input of 10^9 TU as described for the cell panning. The specificity was confirmed by adding […] (SEQ ID NO:56) peptide to the binding medium in increasing concentrations. For phage binding on immunocaptured APA, wells were blocked for 1 h at room temperature with PBS/3% BSA and incubated with 10^9 TU for 1 h at room temperature in 50 μl PBS/3% BSA. After eight washes in PBS/1% BSA/0.01% Tween-20 and two washes in PBS, phage were rescued by adding 200 μl of exponentially growing K91Kan E. coli. Each experiment was repeated at least three times.

HUVECs [2] = experiment: HUVEC chemotaxis assay (Boyden chamber); format: cell-based, human; conditions: 1 mM, VEGF-A (10 ng/ml), Boyden chamber
Description: FIG. 33. […] (SEQ ID NO:56) inhibits HUVEC migration. HUVECs were stimulated with VEGF-A (10 ng/ml). The assay was performed in a Boyden microchemotaxis chamber, and cells were allowed to migrate through an 8-μm pore filter for 5 h at 37° C. […] (SEQ ID NO:57) (control) and […] (SEQ ID NO:56) peptides were tested at 1 mM concentration. Migrated cells were stained and five high-power fields (magnitude 100×) for each microwell were counted. Error bars are the standard error of the means of triplicate microwells.
A cell migration assay was performed in a 48-well microchemotaxis chamber (NeuroProbe, Gaithersburg, Md.) according to Bussolini et al. (1995). Polyvinylpyrrolidone-free polycarbonate filters (Nucleopore, Cambridge, Mass.) with 8-μm pores were coated with 1% gelatin for 10 min at room temperature and equilibrated in M199 medium supplemented with 2% FCS. […] (SEQ ID NO:56) or control […] (SEQ ID NO:57) peptide (1 mM) was placed in the lower compartment of a Boyden chamber in M199 medium supplemented with 2% FCS and 10 ng/ml VEGF-A (R&D System). Subconfluent cultures that had been starved overnight were harvested in PBS containing 2.5 mM EDTA, washed once in PBS, and resuspended in M199 medium containing 2% FCS at a final concentration of 2×10^6 cells/ml. […] Five random high-power fields (magnitude 100×) were counted in each well. […]

aminopeptidase N = aminopeptidase N (Homo sapiens, UniProt P15144); experiment: Aminopeptidase N activity; format: biochemical; conditions: data not shown
[3] = tested on: chicken chorioallantoic membrane (CAM); experiment: CAM assay for angiogenesis; format: in vivo
Description: In vivo angiogenesis was evaluated by a CAM assay (Ribatti et al., 1994). Fertilized eggs from White Leghorn chickens were maintained in constant humidity at 37° C. On the third day of incubation, a square window was opened in the eggshell and 2-3 ml of albumen was removed to detach the developing CAM from the shell. The window was sealed with a glass plate of the same size and the eggs were returned to the incubator. At day 8, 1 mm^3 sterilized gelatin sponges (Gelfoam, Upjohn Co, Kalamazoo, […]) were adsorbed with VEGF-A (20 ng, R&D System) and either […] (SEQ ID NO:56) or control […] (SEQ ID NO:57) peptide (1 mM) in 3 μl PBS and implanted on the top of the growing CAMs under sterile conditions. CAMs were examined daily until day 12 and photographed in ovo with a Leica stereomicroscope. Capillaries emerging from the sponge were counted. The assay was repeated twice.

HUVECs [4] = experiment: Three-dimensional cell culture on Matrigel; format: cell-based, human; conditions: HUVECs on three-dimensional matrix gel, not shown
Description: Matrigel (Collaborative Research, Bedford, Mass.) was added at 100 μl per well to 48-well tissue culture plates and allowed to solidify for 10 min at 37° C. HUVECs were starved for 24 h in M199 medium supplemented with 2% FCS before being harvested in PBS containing 2.5 mM EDTA. 10^4 cells were gently added to each of the triplicate wells and allowed to adhere to the gel coating for 30 min at 37° C. Then, medium was replaced with indicated concentrations of […] (SEQ ID NO:56) or […] (SEQ ID NO:57) peptides in complete medium. The plates were photographed after 24 h with an inverted microscope (Canon). The assay was repeated three times.

T1 sequence (Q07075 whole entry): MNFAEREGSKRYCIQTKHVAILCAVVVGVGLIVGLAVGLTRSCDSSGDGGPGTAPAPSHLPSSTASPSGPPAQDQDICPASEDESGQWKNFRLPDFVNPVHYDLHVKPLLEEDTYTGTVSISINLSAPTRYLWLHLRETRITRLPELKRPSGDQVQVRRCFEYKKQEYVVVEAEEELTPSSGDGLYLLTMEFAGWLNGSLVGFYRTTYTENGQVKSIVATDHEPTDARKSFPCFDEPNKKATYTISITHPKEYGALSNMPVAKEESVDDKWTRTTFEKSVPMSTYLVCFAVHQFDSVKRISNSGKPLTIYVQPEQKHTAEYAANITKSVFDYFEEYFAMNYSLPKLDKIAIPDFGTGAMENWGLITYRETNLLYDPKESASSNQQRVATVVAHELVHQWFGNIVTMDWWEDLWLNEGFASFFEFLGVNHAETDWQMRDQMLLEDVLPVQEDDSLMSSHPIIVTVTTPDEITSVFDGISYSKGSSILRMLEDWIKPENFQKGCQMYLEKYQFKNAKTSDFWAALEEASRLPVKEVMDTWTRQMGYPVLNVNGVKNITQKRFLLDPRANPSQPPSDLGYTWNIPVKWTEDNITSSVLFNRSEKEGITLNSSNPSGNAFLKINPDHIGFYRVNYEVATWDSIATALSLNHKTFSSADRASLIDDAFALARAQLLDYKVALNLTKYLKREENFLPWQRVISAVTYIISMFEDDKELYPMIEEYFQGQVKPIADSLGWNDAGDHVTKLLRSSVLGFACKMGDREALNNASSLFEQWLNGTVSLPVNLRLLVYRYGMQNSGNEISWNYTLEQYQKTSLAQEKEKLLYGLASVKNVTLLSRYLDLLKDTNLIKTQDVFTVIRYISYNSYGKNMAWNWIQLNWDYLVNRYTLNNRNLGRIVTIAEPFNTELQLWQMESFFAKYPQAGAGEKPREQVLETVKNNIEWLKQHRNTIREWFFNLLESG
aminopeptidase N, sequence (P15144 whole entry, species assumed): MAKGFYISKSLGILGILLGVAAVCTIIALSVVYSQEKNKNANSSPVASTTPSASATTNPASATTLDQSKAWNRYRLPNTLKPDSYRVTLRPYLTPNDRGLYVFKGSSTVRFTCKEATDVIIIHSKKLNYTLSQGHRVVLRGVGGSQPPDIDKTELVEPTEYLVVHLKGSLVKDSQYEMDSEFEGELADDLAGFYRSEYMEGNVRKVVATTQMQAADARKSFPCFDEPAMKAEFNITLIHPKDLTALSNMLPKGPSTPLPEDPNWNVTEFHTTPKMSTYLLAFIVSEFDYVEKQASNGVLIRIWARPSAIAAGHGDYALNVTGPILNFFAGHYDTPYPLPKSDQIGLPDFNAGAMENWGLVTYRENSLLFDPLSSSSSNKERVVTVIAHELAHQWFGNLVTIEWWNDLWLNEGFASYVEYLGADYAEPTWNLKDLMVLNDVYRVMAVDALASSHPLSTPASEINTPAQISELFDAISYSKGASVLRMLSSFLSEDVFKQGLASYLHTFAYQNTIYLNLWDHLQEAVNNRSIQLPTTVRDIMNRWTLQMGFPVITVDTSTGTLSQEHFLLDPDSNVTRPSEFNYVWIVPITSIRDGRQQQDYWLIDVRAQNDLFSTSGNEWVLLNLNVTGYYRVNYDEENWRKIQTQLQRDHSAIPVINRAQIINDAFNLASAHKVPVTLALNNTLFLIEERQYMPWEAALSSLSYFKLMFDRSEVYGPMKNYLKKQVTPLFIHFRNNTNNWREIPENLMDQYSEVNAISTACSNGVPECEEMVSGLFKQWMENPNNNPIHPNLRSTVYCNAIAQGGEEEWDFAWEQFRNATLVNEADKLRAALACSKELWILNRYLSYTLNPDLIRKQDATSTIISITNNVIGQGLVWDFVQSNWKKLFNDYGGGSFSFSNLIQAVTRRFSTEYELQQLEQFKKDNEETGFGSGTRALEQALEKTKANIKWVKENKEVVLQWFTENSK

## CC[C@H](C)[C@H](NC(=O)[C@H](CO)NC(=O)[C@H](CCC(=O)O)NC(=O)[C@H](CS)NC(=O)[C@H](CCC(=O)O)NC(=O)[C@H](CCCNC(=N)N)NC(=O)[C@@H]1CCCN1C(=O)[C@@H](N)CS)C(=O)N[C@@H](CS)C(=O)O (H-CPRECESIC-OH)
HUVECs [1]
  inhibition of cell proliferation: 50%
Aminopeptidase A (APA); SK-RC-49/APA cells, α-glutamyl-p-nitroanilide, 2 h at 37° C., read-out: IC50 for APA enzyme inhibition
  IC50: 800 µM
Aminopeptidase A (APA); at the highest concentration tested
  reduction of APA enzyme activity: 60%
SK-RC-49/APA cells; data not shown
  effect on binding of CYNLCIRECESICGADGACWTWCADGCSRSC phage: displaced
SK-RC-49/APA cells; not shown
  competition with CPKVCPRECESNC phage for binding to SK-RC-49/APA cells: competed
HUVECs [2]
  inhibition of chemotaxis of HUVECs: 70%
Aminopeptidase N
  effect on aminopeptidase N activity: did not affect the activity
[3]; 1 mM, number of capillaries emerging from the sponge
  inhibition of neovascularization induced by VEGF-A: 40%
[3]; VEGF-A 20 ng, peptide 1 mM, mean and standard error, two experiments
  BLOOD VESSEL NUMBERS: 5.5 ± 1.41
HUVECs [4]
  formation of capillary-like network: progressive impairment of the formation of this network
